Measurements: ChEMBL document CHEMBL2424622, “Development of amino-pyrimidine inhibitors of c-Jun N-terminal kinase (JNK): kinase profiling guided optimization of a 1,2,3-benzotriazole lead” (Bioorg Med Chem Lett, 2013)

Experiments:
[1] = biological target: T1, Serine/threonine-protein kinase 4 (Homo sapiens) (UniProt Q13043); assay: Competitive binding affinity to MST1 (unknown origin) at 10 uM in presence of ATP relative to control
T1 sequence (whole entry): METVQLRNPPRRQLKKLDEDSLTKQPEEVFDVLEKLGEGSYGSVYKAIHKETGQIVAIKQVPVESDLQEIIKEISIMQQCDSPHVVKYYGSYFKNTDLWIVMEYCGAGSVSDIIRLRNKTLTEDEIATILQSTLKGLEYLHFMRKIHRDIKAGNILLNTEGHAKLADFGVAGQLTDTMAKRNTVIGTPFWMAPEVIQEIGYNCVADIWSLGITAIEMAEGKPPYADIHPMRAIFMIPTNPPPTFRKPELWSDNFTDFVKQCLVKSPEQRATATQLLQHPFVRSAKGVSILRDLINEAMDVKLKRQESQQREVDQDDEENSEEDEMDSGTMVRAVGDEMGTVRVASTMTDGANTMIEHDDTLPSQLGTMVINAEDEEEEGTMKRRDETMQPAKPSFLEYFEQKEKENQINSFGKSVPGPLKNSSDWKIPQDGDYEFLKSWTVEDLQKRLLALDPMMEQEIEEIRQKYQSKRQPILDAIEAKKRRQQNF

[2] = biological target: Serine/threonine-protein kinase MRCK gamma (Homo sapiens) (UniProt Q6DT37); assay: Competitive binding affinity to DMPK2 (unknown origin) at 10 uM in presence of ATP relative to control
Serine/threonine-protein kinase MRCK gamma (Homo sapiens), sequence (Q6DT37 whole entry, canonical isoform): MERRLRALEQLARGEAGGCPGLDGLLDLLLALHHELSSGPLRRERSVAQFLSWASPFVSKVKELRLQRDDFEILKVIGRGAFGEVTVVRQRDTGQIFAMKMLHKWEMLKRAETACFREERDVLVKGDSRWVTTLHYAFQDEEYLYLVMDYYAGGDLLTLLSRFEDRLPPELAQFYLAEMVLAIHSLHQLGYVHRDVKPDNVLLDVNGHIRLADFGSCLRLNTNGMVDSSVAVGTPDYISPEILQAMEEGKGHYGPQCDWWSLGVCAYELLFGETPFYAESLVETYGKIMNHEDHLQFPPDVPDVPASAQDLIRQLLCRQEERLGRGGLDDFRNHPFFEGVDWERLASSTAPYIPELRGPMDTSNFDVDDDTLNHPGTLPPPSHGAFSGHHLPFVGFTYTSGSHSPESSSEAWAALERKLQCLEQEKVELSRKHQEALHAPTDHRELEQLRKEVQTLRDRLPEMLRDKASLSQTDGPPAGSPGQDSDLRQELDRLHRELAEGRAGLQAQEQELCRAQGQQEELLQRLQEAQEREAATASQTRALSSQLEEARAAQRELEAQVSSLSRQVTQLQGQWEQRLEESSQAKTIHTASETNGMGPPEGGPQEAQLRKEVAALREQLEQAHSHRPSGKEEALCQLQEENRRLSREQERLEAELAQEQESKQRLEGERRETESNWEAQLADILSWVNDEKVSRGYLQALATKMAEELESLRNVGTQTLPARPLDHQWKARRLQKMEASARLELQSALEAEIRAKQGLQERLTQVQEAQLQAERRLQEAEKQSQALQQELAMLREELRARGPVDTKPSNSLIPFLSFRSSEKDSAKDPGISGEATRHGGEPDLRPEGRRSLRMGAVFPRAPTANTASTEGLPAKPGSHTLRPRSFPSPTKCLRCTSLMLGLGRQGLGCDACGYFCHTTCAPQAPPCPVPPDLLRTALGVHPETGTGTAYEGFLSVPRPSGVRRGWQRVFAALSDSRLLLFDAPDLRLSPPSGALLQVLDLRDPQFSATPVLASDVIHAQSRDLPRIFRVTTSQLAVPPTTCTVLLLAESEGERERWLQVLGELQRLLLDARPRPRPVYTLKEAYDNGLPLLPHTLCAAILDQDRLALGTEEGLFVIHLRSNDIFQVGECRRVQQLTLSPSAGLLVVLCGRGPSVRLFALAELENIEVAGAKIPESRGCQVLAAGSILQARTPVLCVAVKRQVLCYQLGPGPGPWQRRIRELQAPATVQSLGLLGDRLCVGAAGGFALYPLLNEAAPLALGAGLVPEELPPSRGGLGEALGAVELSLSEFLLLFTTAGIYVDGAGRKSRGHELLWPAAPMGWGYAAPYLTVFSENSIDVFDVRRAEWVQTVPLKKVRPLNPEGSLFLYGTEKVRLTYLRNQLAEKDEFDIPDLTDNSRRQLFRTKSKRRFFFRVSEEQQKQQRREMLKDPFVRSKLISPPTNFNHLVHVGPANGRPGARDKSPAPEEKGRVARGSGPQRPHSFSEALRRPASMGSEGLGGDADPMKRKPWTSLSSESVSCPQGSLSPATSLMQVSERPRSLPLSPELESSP

[3] = biological target: T2, Casein kinase I isoform alpha-like (Homo sapiens) (UniProt Q8N752); assay: Competitive binding affinity to CSNK1A1L (unknown origin) at 10 uM in presence of ATP relative to control
T2 sequence (whole entry): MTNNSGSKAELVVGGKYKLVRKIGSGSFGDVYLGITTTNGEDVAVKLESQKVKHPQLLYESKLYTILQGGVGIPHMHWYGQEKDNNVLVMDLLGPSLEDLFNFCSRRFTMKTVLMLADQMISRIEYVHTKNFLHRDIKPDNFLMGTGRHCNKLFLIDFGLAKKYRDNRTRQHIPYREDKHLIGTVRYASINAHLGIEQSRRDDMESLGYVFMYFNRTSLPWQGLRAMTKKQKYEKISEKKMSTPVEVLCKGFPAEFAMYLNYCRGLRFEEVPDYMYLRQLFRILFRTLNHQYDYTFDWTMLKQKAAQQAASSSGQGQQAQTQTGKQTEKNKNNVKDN

[4] = biological target: Cyclin-dependent kinase 7 (Homo sapiens, UniProt P50613); assay: Competitive binding affinity to CDK7 (unknown origin) at 10 uM in presence of ATP relative to control
Cyclin-dependent kinase 7, sequence (P50613 whole entry): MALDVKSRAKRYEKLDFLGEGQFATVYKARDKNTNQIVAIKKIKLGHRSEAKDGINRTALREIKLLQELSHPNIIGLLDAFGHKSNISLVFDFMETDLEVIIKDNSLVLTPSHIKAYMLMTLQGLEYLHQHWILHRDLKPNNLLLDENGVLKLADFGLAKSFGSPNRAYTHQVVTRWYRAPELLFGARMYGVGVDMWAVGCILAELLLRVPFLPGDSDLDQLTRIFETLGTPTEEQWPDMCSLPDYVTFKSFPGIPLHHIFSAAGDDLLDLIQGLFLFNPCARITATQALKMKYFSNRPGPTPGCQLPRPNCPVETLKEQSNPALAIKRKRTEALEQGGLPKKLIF

[5] = biological target: Activin receptor type-1-like (Homo sapiens) (UniProt P37023); assay: Competitive binding affinity to ACVRL1 (unknown origin) at 10 uM in presence of ATP relative to control
Activin receptor type-1-like (Homo sapiens), sequence (P37023 whole entry): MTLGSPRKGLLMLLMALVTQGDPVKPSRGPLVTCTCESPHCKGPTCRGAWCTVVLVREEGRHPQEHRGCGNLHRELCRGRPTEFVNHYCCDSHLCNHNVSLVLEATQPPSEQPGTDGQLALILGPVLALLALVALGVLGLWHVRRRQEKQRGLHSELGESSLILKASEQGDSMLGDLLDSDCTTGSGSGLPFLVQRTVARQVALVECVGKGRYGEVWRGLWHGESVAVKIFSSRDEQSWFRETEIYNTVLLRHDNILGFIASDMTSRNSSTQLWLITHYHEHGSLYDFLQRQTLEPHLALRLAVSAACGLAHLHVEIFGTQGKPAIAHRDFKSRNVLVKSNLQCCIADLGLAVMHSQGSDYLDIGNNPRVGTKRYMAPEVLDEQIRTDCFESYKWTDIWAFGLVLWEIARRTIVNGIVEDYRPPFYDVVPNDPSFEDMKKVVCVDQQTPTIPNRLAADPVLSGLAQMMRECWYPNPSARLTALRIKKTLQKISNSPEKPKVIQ

[6] = biological target: T3, TGF-beta receptor type-1 (Homo sapiens) (UniProt P36897); assay: Competitive binding affinity to TGFBR1 (unknown origin) at 10 uM in presence of ATP relative to control
T3 sequence (whole entry): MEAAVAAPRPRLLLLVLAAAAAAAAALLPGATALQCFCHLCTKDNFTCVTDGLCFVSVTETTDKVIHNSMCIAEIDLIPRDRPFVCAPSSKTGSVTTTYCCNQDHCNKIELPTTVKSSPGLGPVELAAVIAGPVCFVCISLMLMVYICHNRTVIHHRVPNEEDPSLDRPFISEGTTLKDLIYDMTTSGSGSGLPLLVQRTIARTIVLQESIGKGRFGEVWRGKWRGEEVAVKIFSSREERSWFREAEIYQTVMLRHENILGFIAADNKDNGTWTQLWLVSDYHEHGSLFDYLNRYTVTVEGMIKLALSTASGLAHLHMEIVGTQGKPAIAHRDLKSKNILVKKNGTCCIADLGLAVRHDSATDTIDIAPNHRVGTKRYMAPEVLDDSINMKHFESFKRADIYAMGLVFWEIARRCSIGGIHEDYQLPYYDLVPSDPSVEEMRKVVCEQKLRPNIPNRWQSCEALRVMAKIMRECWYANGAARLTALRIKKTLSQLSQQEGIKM

[7] = biological target: T4, Serine/threonine-protein kinase Nek1 (Homo sapiens) (UniProt Q96PY6); assay: Competitive binding affinity to NEK1 (unknown origin) at 10 uM in presence of ATP relative to control
T4 sequence (whole entry): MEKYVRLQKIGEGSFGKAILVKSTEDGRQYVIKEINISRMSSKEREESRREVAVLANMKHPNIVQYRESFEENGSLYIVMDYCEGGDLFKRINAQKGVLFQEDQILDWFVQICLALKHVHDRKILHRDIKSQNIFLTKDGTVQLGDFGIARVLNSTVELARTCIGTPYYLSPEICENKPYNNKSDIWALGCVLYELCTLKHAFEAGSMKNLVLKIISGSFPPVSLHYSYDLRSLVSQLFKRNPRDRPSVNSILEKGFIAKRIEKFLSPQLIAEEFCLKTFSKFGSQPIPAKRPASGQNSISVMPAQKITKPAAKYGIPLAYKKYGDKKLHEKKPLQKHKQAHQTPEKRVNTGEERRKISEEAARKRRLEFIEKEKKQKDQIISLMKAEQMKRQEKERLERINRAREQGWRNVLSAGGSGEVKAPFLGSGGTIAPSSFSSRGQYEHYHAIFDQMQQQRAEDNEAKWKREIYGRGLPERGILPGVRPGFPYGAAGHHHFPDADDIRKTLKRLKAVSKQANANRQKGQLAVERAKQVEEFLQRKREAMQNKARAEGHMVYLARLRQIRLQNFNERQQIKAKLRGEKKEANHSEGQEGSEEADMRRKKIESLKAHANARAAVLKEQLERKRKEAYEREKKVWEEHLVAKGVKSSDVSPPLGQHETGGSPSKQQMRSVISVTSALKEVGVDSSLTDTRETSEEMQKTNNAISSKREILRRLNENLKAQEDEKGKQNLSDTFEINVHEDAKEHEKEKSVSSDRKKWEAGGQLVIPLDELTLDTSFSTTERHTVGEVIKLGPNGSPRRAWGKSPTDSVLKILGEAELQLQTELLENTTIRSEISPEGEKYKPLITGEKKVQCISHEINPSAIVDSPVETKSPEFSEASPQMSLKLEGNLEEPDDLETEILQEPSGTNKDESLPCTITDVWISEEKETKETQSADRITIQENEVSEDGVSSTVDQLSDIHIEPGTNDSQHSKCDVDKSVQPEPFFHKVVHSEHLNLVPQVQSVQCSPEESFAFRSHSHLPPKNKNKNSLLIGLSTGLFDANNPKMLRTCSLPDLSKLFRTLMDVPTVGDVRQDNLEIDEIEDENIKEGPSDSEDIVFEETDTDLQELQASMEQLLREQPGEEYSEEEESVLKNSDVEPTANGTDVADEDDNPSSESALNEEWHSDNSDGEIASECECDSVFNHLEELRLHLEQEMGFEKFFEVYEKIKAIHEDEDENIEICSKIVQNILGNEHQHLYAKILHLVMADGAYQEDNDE

| Structure (SMILES) | inhibition [1] [%] | inhibition [2] [%] | inhibition [3] [%] | inhibition [4] [%] | inhibition [5] [%] | inhibition [6] [%] | inhibition [7] [%] |
| --- | --- | --- | --- | --- | --- | --- | --- |
| O[C@H]1CC[C@H](Nc2nccc(-n3nnc4ccccc43)n2)CC1 | < 50 | < 50 | 100 | 92 | < 50 | < 50 | 98 |
| CS(=O)(=O)CCCOc1cccc2c1ccn2-c1ccnc(N[C@H]2CC[C@H](C(=O)N3CCC(O)CC3)CC2)n1 | – | – | – | > 85 | – | – | > 85 |
| O[C@H]1CC[C@H](Nc2nccc(-n3ncc4ccccc43)n2)CC1 | < 50 | < 50 | 91 | 81 | < 50 | < 50 | 96 |
| O[C@H]1CC[C@H](Nc2nccc(-c3n[nH]c4ccccc34)n2)CC1 | – | – | 100 | – | < 50 | < 50 | – |
| O[C@H]1CC[C@H](Nc2nccc(-n3ccc4ccccc43)n2)CC1 | < 50 | < 50 | 74 | 83 | < 50 | < 50 | 84 |
